The target of assay [1] is T1, nsp10-16 (Severe acute respiratory syndrome coronavirus 2, UniProt P0DTD1).
T1 construct: gene rep
As to the kind of experiment: ITC or other biophysical method (nanoDSF, MST), not given. The assay is classed as binding.

For assay [2], the target named is T1, nsp10-16. As to the kind of experiment: X-ray crystallography, soaking. The assay is classed as binding. To be noted: SAM site, fully replaces SAM; 10 mM soak, pH 6.5.

Regarding `C[S+](CC[C@H](N)C(=O)O)C[C@H]1O[C@@H](n2cnc3c(N)ncnc32)[C@H](O)[C@@H]1O` (some centres unmarked) [S-adenosyl methionine], the KD entry on nsp10-16 [1] was “measurable binding of the tested ligands within the investigated ligand concentrations applied, except for”. Consider `Nc1ncnc2c1ncn2[C@@H]1O[C@H](CO)[C@@H](O)[C@H]1O` [adenosine], for which, at nsp10-16 [2], the “X-ray crystallography, soaking” value is “electron density is observed in the adenosine cavity while SAM is fully replaced”.

Source of the values: paper doi:10.1101/2024.03.13.583470v1, “SARS-CoV-2 methyltransferase nsp10-16 in complex with natural and drug-like purine analogs for guiding structure-based drug discovery” (biorxiv, 2024).
